SMILES strings stand for the structures. Like-named read-outs stand apart in the source and are kept apart here.

What all share (format): biochemical
For test [1], the target named is 320 wild-type protein kinases (Homo sapiens, UniProt O75582). As to conditions: kinase RPS6KA5, singlicate. The text has this:
(§1) Table S4. Profiling of two compounds at two concentrations against 320 wild-type protein kinases; singlicate measurement; Residual activities (% of control).

In test [2] the target is 320 wild-type protein kinases (Homo sapiens, UniProt P10721). The conditions noted are these: KIT, singlicate.
Sequence of 320 wild-type protein kinases (Homo sapiens, UniProt P10721) (P10721 26-976): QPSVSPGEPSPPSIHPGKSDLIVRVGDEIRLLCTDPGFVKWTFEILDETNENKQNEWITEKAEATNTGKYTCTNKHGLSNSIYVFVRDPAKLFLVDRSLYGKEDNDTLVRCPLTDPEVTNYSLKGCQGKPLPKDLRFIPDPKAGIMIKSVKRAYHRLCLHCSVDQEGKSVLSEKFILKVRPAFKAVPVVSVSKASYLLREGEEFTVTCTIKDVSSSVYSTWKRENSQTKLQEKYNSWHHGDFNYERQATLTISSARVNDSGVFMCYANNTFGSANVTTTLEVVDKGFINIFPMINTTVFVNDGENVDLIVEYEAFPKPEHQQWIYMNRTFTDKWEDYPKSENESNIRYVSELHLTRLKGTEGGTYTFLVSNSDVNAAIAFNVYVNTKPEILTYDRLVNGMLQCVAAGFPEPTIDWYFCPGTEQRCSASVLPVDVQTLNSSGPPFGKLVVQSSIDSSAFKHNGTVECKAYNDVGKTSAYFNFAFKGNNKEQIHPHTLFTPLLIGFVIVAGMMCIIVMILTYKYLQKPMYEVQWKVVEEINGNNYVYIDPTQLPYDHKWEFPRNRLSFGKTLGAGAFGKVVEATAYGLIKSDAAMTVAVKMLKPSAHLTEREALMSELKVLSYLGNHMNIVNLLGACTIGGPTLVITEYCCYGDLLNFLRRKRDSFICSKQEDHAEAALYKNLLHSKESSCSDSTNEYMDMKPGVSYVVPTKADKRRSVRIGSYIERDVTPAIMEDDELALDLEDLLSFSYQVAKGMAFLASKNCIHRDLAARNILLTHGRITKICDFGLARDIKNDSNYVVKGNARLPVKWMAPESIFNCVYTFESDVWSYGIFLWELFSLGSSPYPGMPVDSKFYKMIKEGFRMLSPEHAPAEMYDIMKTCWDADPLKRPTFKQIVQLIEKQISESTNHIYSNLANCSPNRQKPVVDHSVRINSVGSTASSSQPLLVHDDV
Text: as §1

For test [3], the target named is 320 wild-type protein kinases (Homo sapiens, UniProt P27361). The conditions noted are these: singlicate.
Sequence of 320 wild-type protein kinases (Homo sapiens, UniProt P27361) (P27361 whole entry): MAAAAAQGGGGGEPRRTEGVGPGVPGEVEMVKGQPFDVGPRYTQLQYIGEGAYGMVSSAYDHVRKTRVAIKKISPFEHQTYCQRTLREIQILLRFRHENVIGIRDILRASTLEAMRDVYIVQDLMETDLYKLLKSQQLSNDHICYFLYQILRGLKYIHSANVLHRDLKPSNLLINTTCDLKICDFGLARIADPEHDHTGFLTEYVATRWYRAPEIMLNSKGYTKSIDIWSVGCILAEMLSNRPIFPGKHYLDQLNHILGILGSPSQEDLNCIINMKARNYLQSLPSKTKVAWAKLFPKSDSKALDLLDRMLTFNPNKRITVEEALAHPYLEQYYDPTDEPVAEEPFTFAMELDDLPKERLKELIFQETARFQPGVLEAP
Text: as §1

The target in test [4] is T1, 320 wild-type protein kinases (Homo sapiens, UniProt P45985).
T1 sequence (P45985 1-399): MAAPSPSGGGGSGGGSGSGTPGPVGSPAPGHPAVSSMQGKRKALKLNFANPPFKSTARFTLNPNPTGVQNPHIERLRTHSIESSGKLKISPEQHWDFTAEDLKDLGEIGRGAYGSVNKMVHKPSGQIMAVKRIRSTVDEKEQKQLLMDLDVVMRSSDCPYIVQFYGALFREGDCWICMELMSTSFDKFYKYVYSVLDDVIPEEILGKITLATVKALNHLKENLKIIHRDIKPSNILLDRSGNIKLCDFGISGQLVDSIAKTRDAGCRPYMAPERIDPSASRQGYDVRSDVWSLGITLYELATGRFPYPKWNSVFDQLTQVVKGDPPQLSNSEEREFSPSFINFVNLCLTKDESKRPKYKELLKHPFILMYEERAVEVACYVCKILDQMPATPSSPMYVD
The conditions noted are these: singlicate.
Text: as §1

Test [5] has as its target 320 wild-type protein kinases (Homo sapiens, UniProt P48729). As to conditions: singlicate.
Text: as §1

Test [6] has as its target 320 wild-type protein kinases (Homo sapiens, UniProt P53667). As to conditions: singlicate.
Text: as §1

Test [7] has as its target 320 wild-type protein kinases (Homo sapiens, UniProt P53779). As to conditions: singlicate.
Text: as §1

Test [8] concerns the target T2, 320 wild-type protein kinases (Homo sapiens, UniProt Q9BXA7).
T2 sequence (Q9BXA7 1-367): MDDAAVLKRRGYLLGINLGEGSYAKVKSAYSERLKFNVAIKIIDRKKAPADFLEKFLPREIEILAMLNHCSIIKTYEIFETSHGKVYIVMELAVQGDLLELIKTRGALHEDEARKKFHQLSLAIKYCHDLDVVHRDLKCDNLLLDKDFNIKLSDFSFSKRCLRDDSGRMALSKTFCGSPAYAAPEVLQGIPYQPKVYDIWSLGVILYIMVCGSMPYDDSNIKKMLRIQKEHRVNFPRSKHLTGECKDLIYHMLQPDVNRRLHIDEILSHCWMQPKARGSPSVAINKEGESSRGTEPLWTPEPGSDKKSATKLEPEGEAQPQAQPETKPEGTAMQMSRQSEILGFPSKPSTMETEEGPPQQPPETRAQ
The conditions noted are these: kinase TSSK1, singlicate.
Text: as §1

Test [9] has as its target 320 wild-type protein kinases (Homo sapiens, UniProt Q9HAZ1). As to conditions: singlicate.
Text: as §1

Test [10] addresses T3, 320 wild-type protein kinases (Homo sapiens, UniProt Q9UBE8).
T3 sequence (Q9UBE8 1-527): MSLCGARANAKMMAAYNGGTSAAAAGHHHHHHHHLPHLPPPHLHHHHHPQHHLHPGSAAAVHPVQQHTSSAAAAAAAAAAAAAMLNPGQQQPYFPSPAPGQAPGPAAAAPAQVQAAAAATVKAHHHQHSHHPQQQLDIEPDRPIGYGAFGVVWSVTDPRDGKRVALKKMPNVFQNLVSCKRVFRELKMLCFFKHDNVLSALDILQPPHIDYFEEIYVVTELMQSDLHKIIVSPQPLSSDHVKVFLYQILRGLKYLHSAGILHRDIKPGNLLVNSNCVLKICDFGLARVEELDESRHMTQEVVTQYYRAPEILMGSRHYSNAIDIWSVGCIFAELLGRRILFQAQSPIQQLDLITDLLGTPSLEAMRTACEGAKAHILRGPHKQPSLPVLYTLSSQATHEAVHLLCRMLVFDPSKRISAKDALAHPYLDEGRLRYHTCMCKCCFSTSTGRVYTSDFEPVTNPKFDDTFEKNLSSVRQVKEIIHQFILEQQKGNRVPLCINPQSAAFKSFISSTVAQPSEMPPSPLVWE
As to conditions: NLK, singlicate.
Text: as §1

Sequence of 320 wild-type protein kinases (Homo sapiens, UniProt P48729) (P48729 whole entry): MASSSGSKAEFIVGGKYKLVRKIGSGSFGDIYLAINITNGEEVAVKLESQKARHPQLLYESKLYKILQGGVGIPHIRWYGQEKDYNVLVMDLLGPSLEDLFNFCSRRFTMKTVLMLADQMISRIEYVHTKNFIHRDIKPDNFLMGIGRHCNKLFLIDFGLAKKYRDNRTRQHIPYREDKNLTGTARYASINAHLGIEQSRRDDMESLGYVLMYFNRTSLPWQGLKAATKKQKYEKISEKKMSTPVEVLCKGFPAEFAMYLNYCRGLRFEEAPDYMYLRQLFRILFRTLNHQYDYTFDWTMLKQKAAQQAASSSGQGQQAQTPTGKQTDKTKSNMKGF
Sequence of 320 wild-type protein kinases (Homo sapiens, UniProt O75582) (O75582 whole entry): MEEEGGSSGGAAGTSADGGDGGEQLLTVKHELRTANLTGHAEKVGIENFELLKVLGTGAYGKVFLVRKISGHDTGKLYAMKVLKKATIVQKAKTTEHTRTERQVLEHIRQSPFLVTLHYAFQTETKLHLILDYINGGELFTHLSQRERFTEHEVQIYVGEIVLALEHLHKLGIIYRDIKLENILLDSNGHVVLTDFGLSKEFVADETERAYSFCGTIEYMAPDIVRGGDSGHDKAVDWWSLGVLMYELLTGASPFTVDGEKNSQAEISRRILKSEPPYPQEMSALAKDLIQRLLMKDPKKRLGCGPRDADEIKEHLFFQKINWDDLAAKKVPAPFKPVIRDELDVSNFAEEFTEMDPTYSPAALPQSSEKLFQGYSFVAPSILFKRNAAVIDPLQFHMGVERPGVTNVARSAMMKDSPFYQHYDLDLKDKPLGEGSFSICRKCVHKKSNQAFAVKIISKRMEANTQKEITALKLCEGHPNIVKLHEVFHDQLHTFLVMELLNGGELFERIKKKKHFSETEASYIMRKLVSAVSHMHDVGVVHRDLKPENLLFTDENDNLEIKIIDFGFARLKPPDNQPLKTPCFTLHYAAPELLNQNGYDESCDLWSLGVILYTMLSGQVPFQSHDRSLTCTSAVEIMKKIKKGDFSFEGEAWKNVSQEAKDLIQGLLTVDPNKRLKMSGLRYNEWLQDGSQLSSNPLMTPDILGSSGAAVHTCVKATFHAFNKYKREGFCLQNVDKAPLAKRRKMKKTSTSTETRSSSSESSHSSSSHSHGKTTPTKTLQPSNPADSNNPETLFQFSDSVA
Sequence of 320 wild-type protein kinases (Homo sapiens, UniProt Q9HAZ1) (Q9HAZ1 whole entry): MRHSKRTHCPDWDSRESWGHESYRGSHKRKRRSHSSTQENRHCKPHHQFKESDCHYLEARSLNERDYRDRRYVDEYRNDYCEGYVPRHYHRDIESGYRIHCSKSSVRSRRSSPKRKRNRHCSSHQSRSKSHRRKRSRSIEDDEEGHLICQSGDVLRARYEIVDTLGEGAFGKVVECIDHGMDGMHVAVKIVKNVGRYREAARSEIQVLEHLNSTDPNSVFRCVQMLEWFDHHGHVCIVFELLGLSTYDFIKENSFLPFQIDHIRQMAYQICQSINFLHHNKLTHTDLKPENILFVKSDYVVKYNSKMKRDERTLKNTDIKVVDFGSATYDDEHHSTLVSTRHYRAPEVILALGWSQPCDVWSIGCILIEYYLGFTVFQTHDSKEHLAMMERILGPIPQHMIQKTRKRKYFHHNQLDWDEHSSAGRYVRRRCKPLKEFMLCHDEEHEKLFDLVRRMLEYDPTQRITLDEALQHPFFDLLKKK
Sequence of 320 wild-type protein kinases (Homo sapiens, UniProt P53667) (P53667 whole entry): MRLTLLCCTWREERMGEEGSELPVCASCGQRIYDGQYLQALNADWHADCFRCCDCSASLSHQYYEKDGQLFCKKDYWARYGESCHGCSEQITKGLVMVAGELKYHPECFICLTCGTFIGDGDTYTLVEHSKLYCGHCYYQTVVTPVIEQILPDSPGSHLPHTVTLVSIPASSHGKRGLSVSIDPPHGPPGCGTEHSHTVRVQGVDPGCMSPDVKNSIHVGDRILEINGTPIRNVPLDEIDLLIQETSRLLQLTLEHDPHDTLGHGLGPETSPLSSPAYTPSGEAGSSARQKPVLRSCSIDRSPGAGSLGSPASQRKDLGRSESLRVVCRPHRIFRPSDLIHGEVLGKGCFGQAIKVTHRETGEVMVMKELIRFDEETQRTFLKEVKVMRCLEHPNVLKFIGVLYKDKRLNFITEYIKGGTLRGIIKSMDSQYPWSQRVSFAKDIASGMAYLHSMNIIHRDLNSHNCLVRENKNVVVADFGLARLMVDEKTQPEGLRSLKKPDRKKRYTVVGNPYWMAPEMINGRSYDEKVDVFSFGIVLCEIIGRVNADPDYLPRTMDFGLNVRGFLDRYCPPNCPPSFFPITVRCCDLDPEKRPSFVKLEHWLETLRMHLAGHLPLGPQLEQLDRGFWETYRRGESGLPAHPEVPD
Sequence of 320 wild-type protein kinases (Homo sapiens, UniProt P53779) (P53779 whole entry): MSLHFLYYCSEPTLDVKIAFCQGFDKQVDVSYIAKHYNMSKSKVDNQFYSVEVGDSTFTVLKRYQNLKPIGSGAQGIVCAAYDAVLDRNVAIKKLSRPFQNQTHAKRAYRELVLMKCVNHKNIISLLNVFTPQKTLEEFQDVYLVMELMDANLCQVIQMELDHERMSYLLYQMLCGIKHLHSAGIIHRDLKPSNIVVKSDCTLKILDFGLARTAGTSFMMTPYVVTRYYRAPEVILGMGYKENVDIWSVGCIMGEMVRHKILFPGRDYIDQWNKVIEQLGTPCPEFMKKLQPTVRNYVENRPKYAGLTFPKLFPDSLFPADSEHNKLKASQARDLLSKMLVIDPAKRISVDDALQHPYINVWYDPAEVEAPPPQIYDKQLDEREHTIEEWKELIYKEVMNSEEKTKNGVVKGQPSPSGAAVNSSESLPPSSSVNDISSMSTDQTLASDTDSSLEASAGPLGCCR

As for `C#Cc1cc(Nc2ncnc3cc(OC)c(OC)cc23)ccc1Cl` [Compound 45], the “Residual activity, RPS6KA5” value was 107 % of control in test [1] (assay conc. 1.0E-06 M) and 104 % of control in test [1] (assay conc. 1.0E-07 M). Further, the Residual activity is reported as 105 % of control in test [2] (1.0E-06 M); 124 % of control in test [2] (1.0E-07 M); 95 % of control in test [3] (ERK1, 1.0E-06 M); 92 % of control in test [3] (ERK1, 1.0E-07 M); 96 % of control in test [4] (MKK4, 1.0E-06 M); 88 % of control in test [4] (MKK4, 1.0E-07 M). Besides, the Residual activity is reported as 95 % of control in test [5] (CK1-alpha1, 1.0E-06 M); 98 % of control in test [5] (CK1-alpha1, 1.0E-07 M); 90 % of control in [6] (LIMK1, 1.0E-06 M); 103 % of control in test [6] (LIMK1, 1.0E-07 M); 89 % of control in test [7] (JNK3, 1.0E-06 M); 92 % of control in [7] (JNK3, 1.0E-07 M). In addition, the Residual activity is reported as 69 % of control in test [9] (CLK4, 1.0E-06 M); 100 % of control in test [9] (CLK4, 1.0E-07 M); 31 % of control in [10] (1.0E-06 M); 83 % of control in test [10] (1.0E-07 M). The results for the “Residual activity, TSSK1” value in test [8] (assay conc. 1.0E-06 M) and in test [8] (assay conc. 1.0E-07 M) were 111 % of control and 127 % of control, respectively.

In the case of `C#Cc1cc(Nc2ncnc3cc(I)ccc23)ccc1Cl` [Compound 41], the “Residual activity, RPS6KA5” value in test [1] (assay conc. 1.0E-06 M) is reported as 99 % of control; in [1] (assay conc. 1.0E-07 M), 112 % of control. Further, the Residual activity in test [2] (1.0E-06 M) is given as 121 % of control; in [2] (1.0E-07 M), 128 % of control; in test [3] (ERK1, 1.0E-06 M), 97 % of control; in test [3] (ERK1, 1.0E-07 M) it was 91 % of control; in test [4] (MKK4, 1.0E-06 M) it was 93 % of control; in [4] (MKK4, 1.0E-07 M), 87 % of control. Further, the Residual activity in [5] (CK1-alpha1, 1.0E-06 M) is on record as 99 % of control; in test [5] (CK1-alpha1, 1.0E-07 M) it was 104 % of control; in test [6] (LIMK1, 1.0E-06 M), 86 % of control; in [6] (LIMK1, 1.0E-07 M) it was 101 % of control; in [7] (JNK3, 1.0E-06 M), 99 % of control; in test [7] (JNK3, 1.0E-07 M), 90 % of control. Also, the Residual activity in test [9] (CLK4, 1.0E-06 M) is 112 % of control; in [9] (CLK4, 1.0E-07 M), 111 % of control; in test [10] (1.0E-06 M), 63 % of control; in test [10] (1.0E-07 M), 76 % of control. The “Residual activity, TSSK1” value is on record as 105 % of control in test [8] (assay conc. 1.0E-06 M) and 142 % of control in test [8] (assay conc. 1.0E-07 M).
